From patent US9963466B2, “Substituted 5-membered heterocyclic analogs as protease activated receptor 4 (PAR-4) antagonists” (Vanderbilt University, priority 2016, dated 2018)
Bridge positions count the residues as written; N and C are the ends. Square brackets hold non-standard residues; d marks the D form. Ends that are not written are not given here. Peptide text beside a SMILES is read from it. * marks the point of attachment. Palmitoyl = CCCCCCCCCCCCCCCC(=O)*; hArg = N=C(N)NCCCC[C@H](N)C(=O)O; Mpa = O=C(O)CCS

How the values were obtained:
PAR4 [1] = biological target: T1, PAR4 (Homo sapiens, UniProt Q96RI0); assay: PAC-1 binding assay, washed platelets stimulated with PAR-4-AP (flow cytometry); type: cell-based; conditions: PAR-4-AP stimulation, dose response curve
T1 construct: 60 μL of washed platelets (Tyrodes buffer containing 0.1% BSA); endogenous in cells; host or cells: washed platelets
T1 sequence (Q96RI0 18-385): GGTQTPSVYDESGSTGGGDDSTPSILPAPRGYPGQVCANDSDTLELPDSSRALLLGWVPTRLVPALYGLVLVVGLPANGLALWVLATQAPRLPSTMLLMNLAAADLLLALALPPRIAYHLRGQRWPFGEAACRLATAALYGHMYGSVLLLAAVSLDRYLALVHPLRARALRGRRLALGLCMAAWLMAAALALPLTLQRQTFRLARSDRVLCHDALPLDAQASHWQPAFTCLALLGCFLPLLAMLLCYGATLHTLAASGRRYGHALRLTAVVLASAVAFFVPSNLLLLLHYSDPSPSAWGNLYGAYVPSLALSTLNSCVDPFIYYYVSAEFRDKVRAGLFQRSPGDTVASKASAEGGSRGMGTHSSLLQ
Procedure: (§1) PAC-1 Binding assay: 60 μL of washed platelets (Tyrodes buffer containing 0.1% BSA) at a concentration of 0.15×10^8 platelets/mL were added to 5 mL round bottom polystyrene tubes (BD, Franklin Lakes, N.J.). FITC conjugated PAC-1 (BD Biosciences, San Jose, Calif.) antibody was diluted (to the manufacturers recommended concentration) in Tyrode's buffer containing 0.1% BSA. 40 μL of diluted antibody was added to the platelets and allowed to incubate for 5 minutes. Platelets were pre-treated with indicated concentrations of antagonist or DMSO control for 5 minutes followed by addition of PAR-1-AP (GL Biochem, Shanghai, China) or PAR-4-AP for 10 minutes. Platelet activity was quenched by the addition ice cold 1.5% paraformaldehyde followed by dilution in 1× phosphate buffered saline. The final DMSO concentration was 0.5%. Platelets were stored up to 18 hours at 4° C. before flow cytometric analysis. Analysis was carried out on a BD FACS Canto II (Franklin Lakes, N.J.). Fluorescent intensity was determined for 100,000 events within the platelet gate. Data was collected and analyzed via FACS DiVa software. Flow cytometric data analysis was conducted by the following method. The DMSO-vehicle treated control was subtracted from each data point. 100% response for PAR-4-AP was determined for each individual as the DMSO treated control stimulated with either 200 μM PAR-4-AP, or 20 μM PAR-1-AP. Data was plotted in GraphPad PRISM v.5.0. For compounds with a notable reduction in PAC-1 binding response, a dose response curves and subsequent IC50 values were generated using the inhibitory sigmoidal dose response ‘variable slope’ parameter. PAR-4 results were plotted as mean±SEM.

PAR4 [2] = biological target: T1, PAR4; assay: PAC-1 binding assay, platelets stimulated with γ-thrombin; type: cell-based; conditions: stimulation with 316 nM γ-thrombin; compound concentration not given
Excerpt: Gamma-thrombin is a proteolytic product of alpha-thrombin cleavage by a serine protease. Cleavage results in the disruption of exosite I which interacts directly with the hirudin-like domain of its primary substrates fibrinogen and protease-activated receptor 1 (PAR1). As a result, gamma-thrombin selectively cleaves PAR4 in the nanomolar range, leaving PAR1 intact. See Soslau, G., Class, R., Morgan, D. A., Foster, C., Lord, S. T., Marchese, P., and Ruggeri, Z. M. (2001) Unique pathway of thrombin-induced platelet aggregation mediated by glycoprotein Ib, The Journal of biological chemistry 276, 21173-21183. Gamma-thrombin (Enzyme Research Laboratories, South Bend, Ind.) is produced by trypsin-sepharose cleavage of alpha-thrombin. To neutralize alpha-thrombin contamination, stock solutions of gamma-thrombin are preincubated with 1 unit/mL hirudin prior 100 fold dilution into the sample for platelet stimulation. This concentration of hirudin is capable of abolishing alpha-thrombin activity with no effect on the activity of gamma-thrombin. See Soslau, G., Goldenberg, S. J., Class, R., and Jameson, B. (2004) Differential activation and inhibition of human platelet thrombin receptors by structurally distinct alpha-, beta- and gamma-thrombin, Platelets 15, 155-166. Single point screens and concentration response curves are conducted with 316 nanomolar or 100 nanomolar gamma-thrombin using PAC1 and CD61p binding.
as §1

PAR4 [3] = biological target: T2, PAR4 (Rattus norvegicus, UniProt Q920E0); conditions: rat hindpaw, carrageenan; cited from earlier work
T2 construct: host or cells: rat, in vivo
T2 sequence (Q920E0 17-395): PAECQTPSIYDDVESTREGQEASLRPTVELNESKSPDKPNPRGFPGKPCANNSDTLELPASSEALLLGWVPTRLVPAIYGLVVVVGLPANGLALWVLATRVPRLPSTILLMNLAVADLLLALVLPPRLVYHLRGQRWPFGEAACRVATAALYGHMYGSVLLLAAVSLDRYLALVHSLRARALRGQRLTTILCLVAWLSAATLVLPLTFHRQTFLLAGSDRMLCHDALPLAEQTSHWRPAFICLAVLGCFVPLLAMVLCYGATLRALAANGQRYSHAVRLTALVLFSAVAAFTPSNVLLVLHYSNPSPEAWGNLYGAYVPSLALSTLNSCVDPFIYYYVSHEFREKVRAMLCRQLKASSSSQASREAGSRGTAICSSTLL

PAR4 [4] = biological target: T2, PAR4; conditions: rat myocardial ischemia/reperfusion; cited from earlier work
PAR4 [5] = biological target: T3, PAR4 (Mus musculus, UniProt O88634); conditions: cited from earlier work
T3 construct: PAR4-AP, or Trypsin injected pleural cavities of mice; host or cells: mouse, in vivo
T3 sequence (O88634 17-396): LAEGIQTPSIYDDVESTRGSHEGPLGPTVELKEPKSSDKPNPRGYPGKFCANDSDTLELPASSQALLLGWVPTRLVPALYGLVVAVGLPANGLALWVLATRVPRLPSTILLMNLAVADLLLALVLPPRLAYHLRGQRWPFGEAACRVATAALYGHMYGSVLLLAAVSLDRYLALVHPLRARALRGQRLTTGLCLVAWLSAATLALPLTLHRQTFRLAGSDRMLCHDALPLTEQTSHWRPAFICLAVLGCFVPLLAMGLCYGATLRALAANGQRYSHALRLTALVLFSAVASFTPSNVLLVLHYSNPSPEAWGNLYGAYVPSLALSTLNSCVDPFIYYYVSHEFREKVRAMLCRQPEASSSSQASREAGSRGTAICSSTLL

[6] = biological target: T4, protease-activated receptor type 4 (PAR4) (Homo sapiens, UniProt Q96RI0); conditions: abstract of Lee et al. 2001; cited from earlier work
T4 construct: host or cells: platelets
T4 sequence (Q96RI0 18-385): T1 sequence (Q96RI0 18-385)

PAR1 [7] = biological target: T5, PAR1 (Homo sapiens, UniProt P25116); conditions: cited from earlier work
T5 construct: host or cells: patients, in vivo
T5 sequence (P25116 22-425): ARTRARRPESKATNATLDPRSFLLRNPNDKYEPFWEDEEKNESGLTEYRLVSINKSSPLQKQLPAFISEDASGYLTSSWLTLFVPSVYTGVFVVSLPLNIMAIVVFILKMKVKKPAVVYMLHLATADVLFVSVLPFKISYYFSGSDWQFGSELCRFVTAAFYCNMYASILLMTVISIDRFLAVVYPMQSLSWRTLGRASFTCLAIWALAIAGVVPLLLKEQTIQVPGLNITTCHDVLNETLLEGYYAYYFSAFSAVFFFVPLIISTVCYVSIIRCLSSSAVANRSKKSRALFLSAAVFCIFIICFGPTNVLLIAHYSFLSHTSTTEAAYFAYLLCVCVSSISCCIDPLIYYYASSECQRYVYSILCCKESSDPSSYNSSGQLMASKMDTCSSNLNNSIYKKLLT

PAR1 [8] = biological target: T5, PAR1; conditions: cited from earlier work; remark: listed apart in the source
influenza viruses = conditions: mice treated with GPIIbIIIa antagonist; cited from earlier work
[9] = non-ST-segment ACS patients undergoing CABG
[10] = non-ST-segment elevation ACS patients
[11] = patients with myocardial infarction, added to standard anti-platelet therapy
[12] = patients with peripheral artery disease
[13] = patients with prior ischemic stroke, added to standard of care

COc1nn2cc(-c3sc(-c4ccccc4)nc3C)nc2s1 [Example B6]
IC50 (PAR4 [1]): 0.0698 µM
γ-thrombin % Max PAC-1 binding (316 nM) (PAR4 [2]): 92%

palmitoly-SGRRYGHALR (Palmitoyl-SGRRYGHALR) [palmitoylated peptide named beside P4pal-10 in the carrageenan model]
edema and granulocyte recruitment (PAR4 [3]): reduced edema and granulocyte recruitment

trans-cinnamoyl-YPGKF [tcY-NH2]
infarct size (PAR4 [4]): reduced infarct size
neutrophil migration (PAR4 [5]; CXCL8, carrageenan, PAR4-AP or Trypsin injected pleural cavities of mice): inhibit neutrophil migration
eosinophil recruitment (PAR4 [5]; after intrapleural injection of Eotaxin-1): blocks eosinophil recruitment

COc1nn2cc(-c3nccs3)nc2s1 [Example B7]
γ-thrombin % Max PAC-1 binding (316 nM) (PAR4 [2]): 98%

COc1nn2cc(-c3csc4ccccc34)nc2s1 [Example B3]
IC50 (PAR4 [1]): 0.458 µM
γ-thrombin % Max PAC-1 binding (316 nM) (PAR4 [2]): 99%

COC(=O)c1[nH]c2ccc(OC(F)(F)F)cc2c1-c1cn2nc(OC)sc2n1 [Example B1, Methyl 3-(2-methoxyimidazo[2,1-b][1,3,4]thiadiazol-6-yl)-5-(trifluoromethoxy)-1H-indole-2-carboxylate]
IC50 (PAR4 [1]): 2.11 µM
γ-thrombin % Max PAC-1 binding (316 nM) (PAR4 [2]): 100%

COc1nn2cc(-c3ccc(-c4ccccc4)s3)nc2s1 [Example B8, 2-Methoxy-6-(5-phenylthiophen-2-yl)imidazo[2,1-b][1,3,4]thiadiazole]
IC50 (PAR4 [1]): 0.00746 µM
γ-thrombin % Max PAC-1 binding (316 nM) (PAR4 [2]): 78%

CCOC(=O)c1ccc(-c2nn(Cc3ccccc3)c3ccccc23)cc1
inhibition of PAR4-dependent platelet activation [6]: selective and potent inhibitor

CCOC(=O)N[C@@H]1CC[C@@H]2[C@@H](C1)C[C@H]1C(=O)O[C@H](C)[C@H]1[C@H]2/C=C/c1ccc(-c2cccc(F)c2)cn1 [Vorapaxar]
ischemic events (PAR1 [7]; [9]): significant reduction
major CABG-related bleeding (PAR1 [7]; [9]): no significant increase
primary composite endpoint (PAR1 [7]; [10]): did not significantly reduce
risk of major bleeding, including intracranial hemorrhage (PAR1 [7]; [10]): significant increase
moderate to severe bleeding (PAR1 [8]; [11]): significant increase
risk of cardiovascular death or ischaemic events (PAR1 [8]; [11]): reduced the risk
limb ischemia and peripheral revascularization (PAR1 [8]; [12]): significant beneficial effects
risk of bleeding (PAR1 [8]; [12]): increased risk of bleeding
major vascular events (PAR1 [8]; [13]): without improvement
risk of intracranial hemorrhage (PAR1 [8]; [13]): increased the risk

N=C(N)NCCCC[C@@H]1NC(=O)CCSSC[C@@H](C(N)=O)NC(=O)[C@@H]2CCCN2C(=O)[C@H](Cc2c[nH]c3ccccc23)NC(=O)[C@H](CC(=O)O)NC(=O)CNC1=O [eptifibatide] ([Mpa][hArg]GDWPC-NH2; disulfide 1-7)
protection from death caused by influenza viruses (influenza viruses): had the same effect

COc1nn2cc(-c3cc(-c4ccc(Cl)cc4)no3)nc2s1 [Example B2]
IC50 (PAR4 [1]): 1.93 µM
γ-thrombin % Max PAC-1 binding (316 nM) (PAR4 [2]): 94%

COc1nn2cc(-c3cnn(-c4ccccc4)c3C)nc2s1 [Example B5]
IC50 (PAR4 [1]): 1.53 µM
γ-thrombin % Max PAC-1 binding (316 nM) (PAR4 [2]): 95%

COc1nn2cc(-c3c(-c4ccccc4)noc3C)nc2s1 [Example B4]
γ-thrombin % Max PAC-1 binding (316 nM) (PAR4 [2]): 93%
